Measured values published in ChEMBL document CHEMBL1221360, “Synthesis and structure-activity relationships of sinenxan A derivatives as multidrug resistance reversal agents” (Bioorg Med Chem Lett, 2010).
Calls of active or inactive are those of the source. No cut-off for these calls is given here.

Legend:
[1] = test system: KB; test: Cytotoxicity against human KB cells; type: functional, cell-based
[2] = test system: KB/V; test: Reversal of human P-glycoprotein-mediated multidrug resistance in human KB/V cells as reduction of vincristine IC50 at 10 uM; type: cell-based
[3] = test system: KB/V; test: Partial reversal of human P-glycoprotein-mediated multidrug resistance in human KB/V cells as reduction of vincristine IC50 at 10 uM; type: cell-based
[4] = test system: KB/V; test: Ratio of compound reversal of P-glycoprotein-mediated multidrug resistance to verapamil reversal of P-glycoprotein-mediated multidrug resistance in human KB/V cells; type: cell-based

## C=C1[C@@H](OC(=O)CCc2ccccc2)CC[C@@]2(C)C[C@H](OC(C)=O)C3=C(C)CC[C@@H]([C@@H](OC(C)=O)[C@H]12)C3(C)C
[1]
  Activity: inactive
[2]
  Activity: inactive

## C=C1[C@@H](OC(=O)c2ccco2)CC[C@@]2(C)C[C@H](OC(C)=O)C3=C(C)C(=O)C[C@@H]([C@@H](OC(C)=O)[C@H]12)C3(C)C
[3]
  Activity: Active
[1]
  Activity: inactive

## C=C1[C@@H](OC(=O)CC2CCCCC2)CC[C@@]2(C)C[C@H](OC(C)=O)C3=C(C)C(=O)C[C@@H]([C@@H](OC(C)=O)[C@H]12)C3(C)C
[1]
  Activity: inactive
[2]
  Activity: Active
[4]
  Ratio: 6.6

## C=C1[C@@H](OC(=O)[C@@H]2CCCN2)CC[C@@]2(C)C[C@H](OC(C)=O)C3=C(C)C(=O)CC([C@@H](OC(C)=O)[C@H]12)C3(C)C (single isomer, unassigned)
[1]
  Activity: inactive
[2]
  Activity: Active
[4]
  Ratio: 21.2

## C=C1[C@@H](OC(=O)CCCCc2ccccc2)CC[C@@]2(C)C[C@H](OC(C)=O)C3=C(C)CC[C@@H]([C@@H](OC(C)=O)[C@H]12)C3(C)C
[3]
  Activity: Active
[1]
  Activity: inactive

## C=C1[C@@H](OC(=O)CCc2cccs2)CC[C@@]2(C)C[C@H](OC(C)=O)C3=C(C)C(=O)C[C@@H]([C@@H](OC(C)=O)[C@H]12)C3(C)C
[1]
  Activity: inactive
[2]
  Activity: inactive

## C=C1[C@@H](OC(=O)Cc2cccc3ccccc23)CC[C@@]2(C)C[C@H](OC(C)=O)C3=C(C)C(=O)C[C@@H]([C@@H](OC(C)=O)[C@H]12)C3(C)C
[1]
  Activity: inactive
[2]
  Activity: inactive

## C=C1[C@@H](OC(=O)COc2ccc3ccccc3c2)CC[C@@]2(C)C[C@H](OC(C)=O)C3=C(C)CC[C@@H]([C@@H](OC(C)=O)[C@H]12)C3(C)C
[3]
  Activity: Active
[1]
  Activity: inactive

## C=C1[C@@H](OC(=O)Cc2ccccc2)CC[C@@]2(C)C[C@H](OC(C)=O)C3=C(C)CC[C@@H]([C@@H](OC(C)=O)[C@H]12)C3(C)C
[1]
  Activity: inactive
[2]
  Activity: inactive

## C=C1[C@@H](OC(=O)/C=C\c2ccco2)CC[C@@]2(C)C[C@H](OC(C)=O)C3=C(C)CC[C@@H]([C@@H](OC(C)=O)[C@H]12)C3(C)C
[1]
  Activity: inactive
[2]
  Activity: inactive

## C=C1[C@@H](OC(=O)CCC(=O)O)CC[C@@]2(C)C[C@H](OC(C)=O)C3=C(C)CC[C@@H]([C@@H](OC(C)=O)[C@H]12)C3(C)C
[1]
  Activity: inactive
[2]
  Activity: inactive

## C=C1[C@@H](OC(=O)COc2ccc3ccccc3c2)CC[C@@]2(C)C[C@H](OC(C)=O)C3=C(C)C(=O)C[C@@H]([C@@H](OC(C)=O)[C@H]12)C3(C)C
[1]
  Activity: inactive
[2]
  Activity: inactive

## C=C1[C@@H](OC(=O)c2cccnc2)CC[C@@]2(C)C[C@H](OC(C)=O)C3=C(C)CC[C@@H]([C@@H](OC(C)=O)[C@H]12)C3(C)C
[3]
  Activity: Active
[1]
  Activity: inactive

## C=C1[C@@H](OC(=O)CCc2cccnc2)CC[C@@]2(C)C[C@H](OC(C)=O)C3=C(C)C(=O)C[C@@H]([C@@H](OC(C)=O)[C@H]12)C3(C)C
[1]
  Activity: inactive
[2]
  Activity: Active
[4]
  Ratio: 1.42

## C=C1[C@@H](OC(=O)CCCc2cccs2)CC[C@@]2(C)C[C@H](OC(C)=O)C3=C(C)C(=O)C[C@@H]([C@@H](OC(C)=O)[C@H]12)C3(C)C
[3]
  Activity: Active
[1]
  Activity: inactive

## COc1ccc(CCN(C)CCCC(C#N)(c2ccc(OC)c(OC)c2)C(C)C)cc1OC (stereo not drawn)
[1]
  Activity: inactive
[2]
  Activity: inactive

## C=C1[C@@H](OC(=O)Cc2cc(OC)ccc2OC)CC[C@@]2(C)C[C@H](OC(C)=O)C3=C(C)CC[C@@H]([C@@H](OC(C)=O)[C@H]12)C3(C)C
[1]
  Activity: inactive
[2]
  Activity: inactive

## C=C1[C@@H](OC(=O)Cc2cccs2)CC[C@@]2(C)C[C@H](OC(C)=O)C3=C(C)C(=O)C[C@@H]([C@@H](OC(C)=O)[C@H]12)C3(C)C
[1]
  Activity: inactive
[2]
  Activity: inactive

## C=C1[C@@H](OC(=O)CCCCc2ccccc2)CC[C@@]2(C)C[C@H](OC(C)=O)C3=C(C)C(=O)C[C@@H]([C@@H](OC(C)=O)[C@H]12)C3(C)C
[1]
  Activity: inactive
[2]
  Activity: inactive

## C=C1[C@@H](OC(=O)/C=C\c2ccco2)CC[C@@]2(C)C[C@H](OC(C)=O)C3=C(C)C(=O)C[C@@H]([C@@H](OC(C)=O)[C@H]12)C3(C)C
[1]
  Activity: inactive
[2]
  Activity: Active
[4]
  Ratio: 1.67

## C=C1[C@@H](OC(=O)c2ccco2)CC[C@@]2(C)C[C@H](OC(C)=O)C3=C(C)CC[C@@H]([C@@H](OC(C)=O)[C@H]12)C3(C)C
[1]
  Activity: inactive
[2]
  Activity: inactive

## C=C1[C@@H](OC(=O)CCCc2ccccc2)CC[C@@]2(C)C[C@H](OC(C)=O)C3=C(C)CC[C@@H]([C@@H](OC(C)=O)[C@H]12)C3(C)C
[1]
  Activity: inactive
[2]
  Activity: inactive

## C=C1[C@@H](OC(=O)Cc2cccs2)CC[C@@]2(C)C[C@H](OC(C)=O)C3=C(C)CC[C@@H]([C@@H](OC(C)=O)[C@H]12)C3(C)C
[1]
  Activity: inactive
[2]
  Activity: inactive

## C=C1[C@@H](OC(=O)/C=C/c2ccccc2)CC[C@@]2(C)C[C@H](OC(C)=O)C3=C(C)CC[C@@H]([C@@H](OC(C)=O)[C@H]12)C3(C)C
[1]
  Activity: inactive
[2]
  Activity: inactive

## C=C1[C@@H](OC(=O)CCC2CCCCC2)CC[C@@]2(C)C[C@H](OC(C)=O)C3=C(C)C(=O)C[C@@H]([C@@H](OC(C)=O)[C@H]12)C3(C)C
[3]
  Activity: Active
[1]
  Activity: inactive

## C=C1[C@@H](OC(=O)CCC2CCCCC2)CC[C@@]2(C)C[C@H](OC(C)=O)C3=C(C)CC[C@@H]([C@@H](OC(C)=O)[C@H]12)C3(C)C
[1]
  Activity: inactive
[2]
  Activity: inactive

## C=C1[C@@H](OC(=O)c2cccnc2)CC[C@@]2(C)C[C@H](OC(C)=O)C3=C(C)C(=O)C[C@@H]([C@@H](OC(C)=O)[C@H]12)C3(C)C
[3]
  Activity: Active
[1]
  Activity: inactive
